Several values for one entry are separate records, joined by “and”; a condition that tells them apart may be missing. Equal entries are not always repeated.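 A five-concentration, 48-hour dose response in 96-well plates underlies each endpoint, interpolated linearly between surrounding concentrations. Abbreviation: GI50, concentration required for 50% inhibition of growth. TGI denotes the concentration required for complete inhibition of growth.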

Some test systems named below: 786-0 renal; CAKI-1 renal; HOP-92 NSCLC; LOX IMVI melanoma; MALME-3M melanoma; OVCAR-5 ovarian; RPMI-8226 leukemia; SF-268 CNS; SK-MEL-2 melanoma; MCF7 breast.
Common to all, as to assay: NCI-60 cell line screen, 48 h

For `CC1=C(C(=O)Nc2cccc(Cl)c2)C(c2ccccc2O)C(C(=O)Nc2cccc(Cl)c2)=C(C)N1`, the TGI with 786-0 renal was found to be 29.2 µM; with CAKI-1 renal it was 43.3 µM; in the test on HOP-92 NSCLC, 37 µM; with LOX IMVI melanoma it was 39.7 µM; in the test on MALME-3M melanoma, 38.6 µM; in the test with OVCAR-5 ovarian it was 38.6 µM. Besides, the figures for the TGI in the test on RPMI-8226 leukemia, in the test with SF-268 CNS and in the test with SK-MEL-2 melanoma were 46 µM, 37.9 µM and 32.2 µM, respectively.

Take `O=CC(OC(=O)c1ccccc1)C(OC(=O)c1ccccc1)C(COC(c1ccccc1)(c1ccccc1)c1ccccc1)OC(=O)c1ccccc1` (stereo unspecified): the GI50 in the test with 786-0 renal was 20 µM; in the test with CAKI-1 renal, 25.1 µM; in the test with LOX IMVI melanoma, 11 µM; in the test on MALME-3M melanoma, 30.3 µM; in the test with MCF7 breast, 6.38 µM; with OVCAR-5 ovarian it was 21.6 µM. The GI50 in the test on SF-268 CNS was 12.7 µM; in the test with SK-MEL-2 melanoma it was 18.4 µM. In addition, the TGI stood at 41 µM in the test on 786-0 renal; 72.2 µM with CAKI-1 renal; 27.3 µM in the test with LOX IMVI melanoma; 95.2 µM in the test with MALME-3M melanoma; 23.7 µM in the test with MCF7 breast; 43.9 µM with OVCAR-5 ovarian. The values for the TGI in the test on SF-268 CNS and in the test on SK-MEL-2 melanoma were 32.3 µM and 50.4 µM, respectively.

In the case of `CC(=O)N[C@H](C)[C@@H](O)[C@@H](C)[C@@H]1OC(=O)/C=C/C=C(C)\C=C\[C@]2(C)C[C@@H](NS(C)(=O)=O)C=C[C@@H]2/C=C(C)/C=C/[C@H]1C`, the GI50 in the test on 786-0 renal is 0.0469 µM and 0.0185 µM; in the test with HOP-92 NSCLC, 0.00126 µM and 0.00435 µM; in the test with LOX IMVI melanoma, 0.00271 µM and 0.00743 µM; with MALME-3M melanoma, 0.0868 µM and 0.0628 µM; in the test with MCF7 breast it was 0.00547 µM and 0.00591 µM; with OVCAR-5 ovarian, > 43.5 µM. Further, the GI50 in the test on RPMI-8226 leukemia was 0.00766 µM and 0.0153 µM; in the test with SF-268 CNS, 0.357 µM and 0.0531 µM; in the test on SK-MEL-2 melanoma, 3.88 µM and 24.1 µM. In addition, the TGI in the test with 786-0 renal was > 43.5 µM; with HOP-92 NSCLC, 0.0297 µM and 0.0256 µM; in the test with LOX IMVI melanoma, 0.00873 µM and 0.0148 µM; with MALME-3M melanoma, > 43.5 µM; in the test on MCF7 breast it was > 43.5 µM; in the test on OVCAR-5 ovarian it was > 43.5 µM. In addition, the TGI in the test on RPMI-8226 leukemia, with SF-268 CNS and in the test on SK-MEL-2 melanoma was > 43.5 µM throughout.

On to `O=C1Cc2c(-c3ccccc3)cc(-c3ccccc3)nc2-c2ccccc2N1`, for which, in the test with 786-0 renal, the GI50 is 4.14 µM. Also, the TGI was 72.5 µM with 786-0 renal; 19.9 µM in the test on CAKI-1 renal; > 100 µM with HOP-92 NSCLC; > 100 µM in the test with LOX IMVI melanoma; > 100 µM in the test on MALME-3M melanoma; 21.2 µM with OVCAR-5 ovarian. Further, the TGI with RPMI-8226 leukemia is > 100 µM; in the test with SF-268 CNS, 19.3 µM; with SK-MEL-2 melanoma, 7.27 µM.

Regarding `OCC1NC(COC2OC(CO)C(O)C(O)C2O)C(O)C(O)C1O` (stereo unspecified), the TGI in the test on 786-0 renal, in the test on CAKI-1 renal, in the test with HOP-92 NSCLC, with MALME-3M melanoma, with MCF7 breast and in the test on OVCAR-5 ovarian was > 100 µM throughout. The TGI in the test with RPMI-8226 leukemia, in the test on SF-268 CNS and in the test with SK-MEL-2 melanoma was > 100 µM in each case.

Take `CN1CCN(CCCOc2cccc3nc(Nc4cc(Cl)cc(Cl)c4)ccc23)CC1`: the GI50 with 786-0 renal is 1.49 µM; in the test on CAKI-1 renal it was 2.97 µM; with HOP-92 NSCLC, 1.59 µM; in the test on MALME-3M melanoma, 1.92 µM; in the test with MCF7 breast, 1.38 µM; in the test on OVCAR-5 ovarian, 1.79 µM. For the same molecule, the GI50 in the test on RPMI-8226 leukemia is 2.17 µM; in the test with SF-268 CNS it was 1.69 µM; in the test on SK-MEL-2 melanoma, 1.79 µM. Moreover, the TGI came to 2.94 µM with 786-0 renal; 11.7 µM with CAKI-1 renal; 4.82 µM in the test with HOP-92 NSCLC; 3.7 µM in the test on MALME-3M melanoma; 2.94 µM in the test on MCF7 breast; 3.43 µM in the test on OVCAR-5 ovarian. In addition, the values for the TGI in the test on RPMI-8226 leukemia, in the test on SF-268 CNS and in the test on SK-MEL-2 melanoma were 4.93 µM, 3.38 µM and 3.54 µM, respectively.

Regarding `O/N=C1/CCC/C1=C\c1ccccc1`, the TGI with 786-0 renal, in the test on CAKI-1 renal, in the test with HOP-92 NSCLC, with LOX IMVI melanoma, in the test with MALME-3M melanoma and in the test with OVCAR-5 ovarian was > 100 µM throughout. The TGI with RPMI-8226 leukemia, with SF-268 CNS and in the test with SK-MEL-2 melanoma was > 100 µM throughout.

For the molecule `CC(C)C[C@H](CC(=O)O)C(=O)N[C@@H](Cc1c[nH]c2ccccc12)C(=O)N[C@@H](C)c1ccccc1`, the GI50 in the test with 786-0 renal, in the test on CAKI-1 renal, in the test with LOX IMVI melanoma, in the test with MALME-3M melanoma, in the test on MCF7 breast and in the test with OVCAR-5 ovarian was > 25 µM each time. The GI50 in the test with SF-268 CNS and with SK-MEL-2 melanoma was > 25 µM each time. The TGI in the test with 786-0 renal, with CAKI-1 renal, in the test with LOX IMVI melanoma, in the test with MALME-3M melanoma, in the test on MCF7 breast and in the test on OVCAR-5 ovarian was > 25 µM throughout. Besides, the TGI with SF-268 CNS and in the test with SK-MEL-2 melanoma was > 25 µM each time.

On to `CCCCC(C(=O)C(=O)Nc1ccc(C)cc1C)C(=O)C(C)C` (stereo unspecified), for which the TGI in the test on 786-0 renal, in the test on CAKI-1 renal, in the test with HOP-92 NSCLC, with LOX IMVI melanoma, in the test on MALME-3M melanoma and with OVCAR-5 ovarian was > 100 µM in each case. For the same molecule, the TGI in the test on RPMI-8226 leukemia, in the test with SF-268 CNS and in the test with SK-MEL-2 melanoma was > 100 µM each time.

For the molecule `O=C(CCC(=O)Nc1ccccc1C(F)(F)F)N/N=C1\C(=N\NC(=O)CCC(=O)Nc2ccccc2C(F)(F)F)C(c2ccc3c(c2)OCO3)Oc2ccccc21` (stereo unspecified), the TGI in the test with 786-0 renal is > 100 µM; in the test with CAKI-1 renal, 98 µM; in the test with HOP-92 NSCLC it was > 87.1 µM; in the test on LOX IMVI melanoma, > 100 µM; in the test on MALME-3M melanoma it was > 100 µM; with OVCAR-5 ovarian, > 100 µM. The TGI in the test with RPMI-8226 leukemia was > 100 µM; in the test on SF-268 CNS, 18.9 µM; with SK-MEL-2 melanoma it was > 100 µM.

For the molecule `Oc1ccc2ccccc2c1CCc1c(O)ccc2ccccc12`, the TGI in the test on 786-0 renal amounted to 34.9 µM; in the test on CAKI-1 renal, 20.5 µM; in the test with HOP-92 NSCLC it was 24.7 µM; in the test on LOX IMVI melanoma, 28 µM; in the test with MALME-3M melanoma, 26.9 µM; with MCF7 breast it was 26.3 µM. The TGI in the test with OVCAR-5 ovarian was 27.2 µM; in the test with RPMI-8226 leukemia, 22 µM; in the test on SF-268 CNS, 25.2 µM.

In the case of `C/C(=N\Nc1ccccc1)c1sc(-c2nc(C)c(/C(C)=N/Nc3ccccc3)s2)nc1C`, the TGI is > 83.1 µM in the test with 786-0 renal; > 89.4 µM in the test with CAKI-1 renal; > 57.6 µM in the test on HOP-92 NSCLC; > 100 µM in the test with LOX IMVI melanoma; 51 µM in the test on MALME-3M melanoma; > 100 µM in the test on OVCAR-5 ovarian. The TGI is > 100 µM in the test on RPMI-8226 leukemia, > 64.6 µM in the test with SF-268 CNS and > 100 µM with SK-MEL-2 melanoma.
